In US5776939A, “Drug resistance and multidrug resistance modulators” (Eli Lilly and Company, priority 1997, dated 1998):

Tests used:
p-glycoprotein = p-glycoprotein (Homo sapiens, UniProt P08183); details: for EC50: cem/vlb100 cells, 72 h; for Rev100 (lowest concentration of modifier which can achieve 100% reversal activity): human, 4320 min
Experimental: When in vitro testing for multidrug resistance modulation with cancer chemotherapeutic drugs is conducted compounds are evaluated for their ability to show multidrug resistance modulation when coadministered with an oncolytic.
The cells can be maintained in SMEM medium supplemented with 10% FBS and 2 mM L-glutamine in a humidified incubator with 95% air and 5% C02. Cell number can be determined using a Coulter Counter model ZM. Cells can be subcultured every 3-4 days.
Cell viability can be determined using a modified MTT dye reduction method (Denziot, F., Lang, R., "Rapid colorimetric assay for cell growth and survival modifications to the tetrazolium procedure giving improved sensitivity and reliability", J. Immunological Methods, 89, 271-277, (1986)). A brief description of this method is as follows: cells are harvested during the logarithmic growth phase, and seeded in 96-well serocluster plates at 7.5×10^3 cells/well and cultured for 72 hours in the presence of serially diluted oncolytics (VLB, DOX, VP-16 and Taxol®)±modulators. A single well assay is conducted using a fixed concentration of VLB (4 ng/ml) and modulator (5μM). The cytotoxicity of the modulator alone, at the same concentration is also determined. Modulators are prepared as 2 mM stocks in DMSO and added to the wells to give final concentrations ranging from 5 pM to 0.5 WM. After 72 hours, 20 µl of freshly prepared MTT (5 mg/ml in Dulbecco's phosphate buffered saline pH 7.5) is added to each well and placed for 4 hours in a 37° C. incubator. Cells are pelleted at 1800 R.P.M. for 10 minutes in a Sorvall RT6000B centrifuge. After centrifugation, 70 μl of medium is carefully removed from each well, and 100 µl of 2- propanol/0.04 N HC1 is added to dissolve the blue formazan stained cells. Cells are resuspended 5-10 times with a multipipettor or until no particulate matter was visible. Plates are immediately read on a Yitertek MCC/340 microplate reader (Flow Laboratories (McLean, VA) with a wavelength of 570 nm and a reference wavelength of 630 nm). Controls are measured in quadruplicate and modulators in duplicate.
IC50 's are calculated from semilog dose response curves in the presence and absence of modulators for both the parent and resistant cell lines. The fold shift is calculated as the IC50 for cells treated with oncolytic alone divided by the IC50 for cells treated with oncolytic+modulator.

drug-resistant malaria = details: in vitro; cited from earlier work
[1] = in vivo; cited from earlier work
multidrug resistance = details: in vivo; cited from earlier work

Sequence of p-glycoprotein (P08183 whole entry): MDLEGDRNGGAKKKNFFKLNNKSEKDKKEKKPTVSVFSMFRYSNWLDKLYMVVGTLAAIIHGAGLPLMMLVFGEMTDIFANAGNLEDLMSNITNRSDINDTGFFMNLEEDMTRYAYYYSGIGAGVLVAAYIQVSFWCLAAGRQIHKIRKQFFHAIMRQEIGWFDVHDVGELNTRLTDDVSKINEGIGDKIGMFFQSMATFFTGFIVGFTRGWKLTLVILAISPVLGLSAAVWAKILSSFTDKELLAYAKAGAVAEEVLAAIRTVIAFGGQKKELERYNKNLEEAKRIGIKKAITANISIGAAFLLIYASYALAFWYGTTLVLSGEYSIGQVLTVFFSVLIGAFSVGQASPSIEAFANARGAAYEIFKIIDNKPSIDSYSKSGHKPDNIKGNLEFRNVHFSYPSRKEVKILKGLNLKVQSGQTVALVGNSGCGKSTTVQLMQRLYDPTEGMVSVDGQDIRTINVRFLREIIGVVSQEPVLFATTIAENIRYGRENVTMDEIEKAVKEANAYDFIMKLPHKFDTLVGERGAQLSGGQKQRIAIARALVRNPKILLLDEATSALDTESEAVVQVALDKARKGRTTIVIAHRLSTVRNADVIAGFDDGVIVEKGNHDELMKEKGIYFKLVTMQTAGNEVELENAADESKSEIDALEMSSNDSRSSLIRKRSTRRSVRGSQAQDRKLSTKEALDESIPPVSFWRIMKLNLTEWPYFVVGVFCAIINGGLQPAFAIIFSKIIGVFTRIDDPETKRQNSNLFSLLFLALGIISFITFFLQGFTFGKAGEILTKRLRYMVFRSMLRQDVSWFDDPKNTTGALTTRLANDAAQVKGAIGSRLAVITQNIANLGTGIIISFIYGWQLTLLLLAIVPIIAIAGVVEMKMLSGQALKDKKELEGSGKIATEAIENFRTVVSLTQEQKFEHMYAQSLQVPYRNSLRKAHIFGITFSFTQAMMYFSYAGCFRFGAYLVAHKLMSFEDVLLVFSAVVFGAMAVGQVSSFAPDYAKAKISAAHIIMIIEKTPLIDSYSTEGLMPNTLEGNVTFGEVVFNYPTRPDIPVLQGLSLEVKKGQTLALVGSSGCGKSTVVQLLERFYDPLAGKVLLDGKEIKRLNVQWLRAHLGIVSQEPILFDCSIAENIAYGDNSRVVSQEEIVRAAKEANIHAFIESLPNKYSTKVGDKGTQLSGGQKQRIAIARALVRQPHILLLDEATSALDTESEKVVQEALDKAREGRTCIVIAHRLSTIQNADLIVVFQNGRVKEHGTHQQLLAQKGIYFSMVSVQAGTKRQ

MDR Reversal Activity (p-glycoprotein)	EC50 (p-glycoprotein) [µM]	Rev100 (lowest concentration of modifier which can achieve 100% reversal activity) (p-glycoprotein) [µM]	Compound	effect on drug-resistant malaria (drug-resistant malaria)	oral bioavailability [1]	dose required to be effective as a multidrug resistance modulator (multidrug resistance)
potent	0.25	0.50	O[C@@H](CSc1cccc2ncccc12)CN1CCN([C@@H]2c3ccccc3[C@@H]3[C@H](c4ccccc42)C3(F)F)CC1 [Example 2b, anti-5-{l-(4-(10,11-difluorocyclopropyldi-benzosuber-5-yl)piperazin-1-yl)-2(R)-hydroxyprop-3-ylthio}quinoline·3HC1]	–	–	–
potent	1	> 1.0	OC(CCc1cccc2ncccc12)CN1CCN([C@@H]2c3ccccc3[C@@H]3[C@H](c4ccccc42)C3(F)F)CC1 (stereo partly drawn) [Example 1e, anti-5-{1-(4-(10,11-difluorocyclopropyldibenzosuber-5-yl)piperazin-1-yl)-2(R,S)-hydroxybut-4-yl}quinoline·3HC1]	–	–	–
–	–	–	COc1ccc(CCN(C)CCCC(C#N)(c2ccc(OC)c(OC)c2)C(C)C)cc1OC (stereo not drawn) [verapamil]	effective	–	–
–	–	–	O=C(C(c1ccccc1)c1ccccc1)N1CCN(CC(O)COc2cccc3ncccc23)CC1 (stereo not drawn) [MS-209]	–	better	higher doses
